Experimental data taken from article PMC8187944, “Discovery of Potent EGFR Inhibitors With 6-Arylureido-4-anilinoquinazoline Derivatives” (Frontiers in Pharmacology, 2021).

Legend:
[1] = test system: A549 cells; assay: Anti-proliferative assay, standard CCK-8 method; format: cell-based, human; settings: Homo sapiens, mean ± SD of at least three independent experiments, read-out: Proliferative inhibition (IC50, μM) A549
Description: (§1) All reagents and solvents met the criteria of analytical reagents before use. All cancer cell lines (A549, human non-small-cell lung cell line; HT-29, human colonic adenocarcinoma cell line; MCF-7, human breast cancer cell line) were purchased from Stem Cell Bank, Chinese Academy of Sciences. […] ADP-Glo™ kinase assay kits were provided by Promega (Beijing) Biotech Co., Ltd. (Beijing, China). All kinase subtypes were supplied by SignalChem (BC, Canada).
(§2) The designed 4-anilinoquinazoline derivatives were evaluated for their antitumor bioactivities in vitro against three human tumor cell lines (A549, HT-29, and MCF-7) using the standard CCK-8 method. The CCK-8 method is based on WST-8 dye, 2-(2-methoxy-4-nitrophenyl)-3-(4-nitrophenyl)-5-(2,4-disulfophenyl)-2H-tetrazolium. WST-8 can be bio-reduced by dehydrogenases in mitochondria into orange water-soluble formazan products. Briefly, selected cancer cells in the logarithmic growth phase (1 × 10^4) were inoculated in 96-well plates and further cultured in the incubator for 24 h. First, the target compounds were diluted to different concentrations with culture medium with each dilution gradually diluted from the highest concentration solution. Second, the original culture medium was removed after the cells were completely adherent to the wall, and the compounds at various concentrations prepared above were added. In this experiment, a control group and a blank group were set: the former was treated with 0.1% DMSO solution, and the latter was treated with only the culture medium. […] A microplate reader was adopted to record the absorbance at 450 nm, and in this assay, gefitinib, erlotinib, and sorafenib were used as the reference drugs.

[2] = test system: HT-29 cells; assay: Anti-proliferative assay, standard CCK-8 method; format: cell-based, human; settings: Homo sapiens, mean ± SD of at least three independent experiments, read-out: Proliferative inhibition (IC50, μM) HT-29
Description: as §1, §2

[3] = test system: MCF-7 cells; assay: Anti-proliferative assay, standard CCK-8 method; format: cell-based, human; settings: Homo sapiens, MCF7, mean ± SD of at least three independent experiments, read-out: Proliferative inhibition (IC50, μM) MCF-7
Description: as §1, §2

[4] = biological target: T1, EGFR (Homo sapiens, UniProt P00533); assay: EGFR kinase inhibition, ADP-Glo assay; format: biochemical
T1 construct: 2 μl (50 ng/ml) of EGFR kinase
Experimental: The EGFR kinase inhibition activities of the target compounds were evaluated by the ADP-Glo™ assay. The ADP-Glo™ kinase detection kit is a luminescence kinase detection approach that detects the amount of ADP produced by the kinase reaction. After ADP is converted into ATP, ATP can be used as the substrate of the luciferase-catalyzed reaction to generate an optical signal, which is positively correlated with kinase activity. […] The above-prepared systems were sealed and incubated at room temperature for 2 h, and 5 μl of ADP-GLO was added to terminate the kinase reaction. Then, the culture plate was sealed and incubated in a thermostatic oscillator for 40 min to fully consume the remaining ATP. The luciferase/luciferin reaction was adopted to determine the newly generated ATP level.

[5] = biological target: FAK (Homo sapiens, UniProt Q05397); assay: Kinase spectrum assay (ADP-Glo); settings: remaining enzyme activity at 1 μm compound
[6] = biological target: FGFR2 (Homo sapiens, UniProt P21802); assay: Kinase spectrum assay (ADP-Glo); settings: remaining enzyme activity at 1 μm compound
[7] = biological target: HER4 (Homo sapiens, UniProt Q15303); assay: Kinase spectrum assay (ADP-Glo); settings: remaining enzyme activity at 1 μm compound
[8] = biological target: LCK (Homo sapiens, UniProt P06239); assay: Kinase spectrum assay (ADP-Glo); settings: remaining enzyme activity at 1 μm compound
[9] = biological target: SRC (Homo sapiens, UniProt P12931); assay: Kinase spectrum assay (ADP-Glo); settings: remaining enzyme activity at 1 μm compound
[10] = biological target: Syk (Homo sapiens, UniProt P43405); assay: Kinase spectrum assay (ADP-Glo); settings: remaining enzyme activity at 1 μm compound
[11] = biological target: FLT3 (Homo sapiens, UniProt P36888); assay: Kinase spectrum assay (ADP-Glo); settings: remaining enzyme activity at 1 μm compound
[12] = biological target: KDR (Homo sapiens, UniProt P35968); assay: Kinase spectrum assay (ADP-Glo); settings: remaining enzyme activity at 1 μm compound
[13] = biological target: NIK (Homo sapiens, UniProt Q99558); assay: Kinase spectrum assay (ADP-Glo); settings: remaining enzyme activity at 1 μm compound
[14] = biological target: ASK1 (Homo sapiens, UniProt Q99683); assay: Kinase spectrum assay (ADP-Glo); settings: remaining enzyme activity at 1 μm compound
[15] = biological target: PKCa (Homo sapiens, UniProt P17252); assay: Kinase spectrum assay (ADP-Glo); settings: remaining enzyme activity at 1 μm compound
[16] = biological target: ROCK1 (Homo sapiens, UniProt Q13464); assay: Kinase spectrum assay (ADP-Glo); settings: remaining enzyme activity at 1 μm compound
[17] = biological target: PKACα (Homo sapiens, UniProt P17612); assay: Kinase spectrum assay (ADP-Glo); settings: remaining enzyme activity at 1 μm compound
[18] = biological target: CLK3 (Homo sapiens, UniProt P49761); assay: Kinase spectrum assay (ADP-Glo); settings: remaining enzyme activity at 1 μm compound
[19] = biological target: JNK1 (Homo sapiens, UniProt P45983); assay: Kinase spectrum assay (ADP-Glo); settings: remaining enzyme activity at 1 μm compound
[20] = biological target: ERK2 (Homo sapiens, UniProt P28482); assay: Kinase spectrum assay (ADP-Glo); settings: remaining enzyme activity at 1 μm compound
[21] = biological target: GSK3β (Homo sapiens, UniProt P49841); assay: Kinase spectrum assay (ADP-Glo); settings: remaining enzyme activity at 1 μm compound
[22] = biological target: IRAK4 (Homo sapiens, UniProt Q9NWZ3); assay: Kinase spectrum assay (ADP-Glo); settings: remaining enzyme activity at 1 μm compound
[23] = biological target: B-raf (Homo sapiens, UniProt P15056); assay: Kinase spectrum assay (ADP-Glo); settings: remaining enzyme activity at 1 μm compound
[24] = test system: other protein kinases; assay: Kinase spectrum assay (ADP-Glo), text summary for kinases other than EGFR; settings: all panel kinases other than EGFR, at 1.0 μm compound

T1 sequence (P00533 25-1210): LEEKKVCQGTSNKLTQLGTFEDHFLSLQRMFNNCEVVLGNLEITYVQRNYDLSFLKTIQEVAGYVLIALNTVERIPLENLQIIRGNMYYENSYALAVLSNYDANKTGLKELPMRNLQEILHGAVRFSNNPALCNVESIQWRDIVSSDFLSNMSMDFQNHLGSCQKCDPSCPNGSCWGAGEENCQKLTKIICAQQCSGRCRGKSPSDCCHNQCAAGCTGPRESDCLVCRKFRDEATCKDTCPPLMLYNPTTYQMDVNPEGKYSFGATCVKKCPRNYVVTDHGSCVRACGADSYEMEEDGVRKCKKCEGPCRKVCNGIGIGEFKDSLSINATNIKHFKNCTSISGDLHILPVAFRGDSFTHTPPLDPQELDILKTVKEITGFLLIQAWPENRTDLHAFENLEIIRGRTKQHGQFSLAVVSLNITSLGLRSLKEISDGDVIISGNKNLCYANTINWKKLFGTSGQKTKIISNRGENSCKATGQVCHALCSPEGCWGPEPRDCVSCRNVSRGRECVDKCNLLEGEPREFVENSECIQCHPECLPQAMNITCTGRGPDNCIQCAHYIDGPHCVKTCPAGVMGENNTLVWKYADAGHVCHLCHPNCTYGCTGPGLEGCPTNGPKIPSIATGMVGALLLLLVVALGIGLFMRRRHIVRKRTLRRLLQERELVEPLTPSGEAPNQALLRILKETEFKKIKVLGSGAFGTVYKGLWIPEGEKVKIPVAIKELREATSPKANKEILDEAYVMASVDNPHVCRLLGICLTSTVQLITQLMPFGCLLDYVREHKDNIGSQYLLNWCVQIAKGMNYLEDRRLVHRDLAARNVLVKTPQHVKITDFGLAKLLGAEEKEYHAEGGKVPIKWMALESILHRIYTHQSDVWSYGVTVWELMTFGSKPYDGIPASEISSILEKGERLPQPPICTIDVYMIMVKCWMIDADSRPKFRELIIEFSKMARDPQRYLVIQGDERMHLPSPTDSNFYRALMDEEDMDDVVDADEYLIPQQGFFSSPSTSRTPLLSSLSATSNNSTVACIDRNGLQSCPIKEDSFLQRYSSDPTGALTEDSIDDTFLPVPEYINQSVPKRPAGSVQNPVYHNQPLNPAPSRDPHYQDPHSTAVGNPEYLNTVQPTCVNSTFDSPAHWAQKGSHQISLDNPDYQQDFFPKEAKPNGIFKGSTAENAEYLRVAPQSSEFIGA
Sequence of JNK1 (P45983 whole entry): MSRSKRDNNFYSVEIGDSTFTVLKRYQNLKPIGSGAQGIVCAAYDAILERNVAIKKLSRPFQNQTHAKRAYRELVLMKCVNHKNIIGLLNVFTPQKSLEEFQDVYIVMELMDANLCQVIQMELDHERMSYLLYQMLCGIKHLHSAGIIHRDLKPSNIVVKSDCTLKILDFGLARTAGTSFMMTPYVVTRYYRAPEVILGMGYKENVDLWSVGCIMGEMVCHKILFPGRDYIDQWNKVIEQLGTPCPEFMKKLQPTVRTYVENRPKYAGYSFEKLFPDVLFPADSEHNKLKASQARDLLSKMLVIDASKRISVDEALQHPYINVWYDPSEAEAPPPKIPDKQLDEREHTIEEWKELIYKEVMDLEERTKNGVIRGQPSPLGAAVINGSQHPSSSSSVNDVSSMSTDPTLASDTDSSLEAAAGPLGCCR
Sequence of ASK1 (Q99683 whole entry): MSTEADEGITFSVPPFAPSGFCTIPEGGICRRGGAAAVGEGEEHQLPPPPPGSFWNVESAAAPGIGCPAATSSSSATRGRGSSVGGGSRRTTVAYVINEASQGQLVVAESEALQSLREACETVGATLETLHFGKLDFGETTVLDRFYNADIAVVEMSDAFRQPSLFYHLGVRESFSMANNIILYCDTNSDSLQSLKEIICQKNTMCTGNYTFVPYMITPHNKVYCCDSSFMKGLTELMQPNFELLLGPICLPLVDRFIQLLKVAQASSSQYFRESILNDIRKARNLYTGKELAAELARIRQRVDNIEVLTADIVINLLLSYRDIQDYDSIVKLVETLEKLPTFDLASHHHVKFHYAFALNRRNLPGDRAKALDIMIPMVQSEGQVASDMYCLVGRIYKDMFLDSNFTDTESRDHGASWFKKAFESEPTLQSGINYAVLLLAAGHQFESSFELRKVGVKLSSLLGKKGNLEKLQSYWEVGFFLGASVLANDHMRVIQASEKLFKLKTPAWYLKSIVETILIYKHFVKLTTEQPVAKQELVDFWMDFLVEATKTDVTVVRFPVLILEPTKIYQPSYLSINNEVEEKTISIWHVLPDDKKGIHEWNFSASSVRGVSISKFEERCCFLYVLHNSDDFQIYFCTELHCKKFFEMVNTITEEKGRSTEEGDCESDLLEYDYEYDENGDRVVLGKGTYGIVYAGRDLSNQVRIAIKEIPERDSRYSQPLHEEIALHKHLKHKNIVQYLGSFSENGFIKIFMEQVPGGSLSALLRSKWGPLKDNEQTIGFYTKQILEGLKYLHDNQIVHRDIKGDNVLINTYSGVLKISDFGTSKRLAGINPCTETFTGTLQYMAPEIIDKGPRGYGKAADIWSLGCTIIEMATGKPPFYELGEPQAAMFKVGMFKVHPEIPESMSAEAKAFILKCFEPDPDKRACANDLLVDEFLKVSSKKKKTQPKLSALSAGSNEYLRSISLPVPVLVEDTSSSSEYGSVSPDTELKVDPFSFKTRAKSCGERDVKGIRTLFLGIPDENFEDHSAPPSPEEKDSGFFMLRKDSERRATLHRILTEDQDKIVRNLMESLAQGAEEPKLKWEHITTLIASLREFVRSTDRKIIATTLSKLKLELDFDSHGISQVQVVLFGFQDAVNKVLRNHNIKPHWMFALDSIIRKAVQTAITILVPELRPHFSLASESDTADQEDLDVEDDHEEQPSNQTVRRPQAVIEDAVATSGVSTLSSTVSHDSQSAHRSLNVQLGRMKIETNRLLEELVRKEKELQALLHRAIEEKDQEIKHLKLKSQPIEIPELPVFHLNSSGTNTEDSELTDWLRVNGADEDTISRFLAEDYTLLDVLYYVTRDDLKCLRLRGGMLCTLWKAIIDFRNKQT
Sequence of FAK (Q05397 whole entry): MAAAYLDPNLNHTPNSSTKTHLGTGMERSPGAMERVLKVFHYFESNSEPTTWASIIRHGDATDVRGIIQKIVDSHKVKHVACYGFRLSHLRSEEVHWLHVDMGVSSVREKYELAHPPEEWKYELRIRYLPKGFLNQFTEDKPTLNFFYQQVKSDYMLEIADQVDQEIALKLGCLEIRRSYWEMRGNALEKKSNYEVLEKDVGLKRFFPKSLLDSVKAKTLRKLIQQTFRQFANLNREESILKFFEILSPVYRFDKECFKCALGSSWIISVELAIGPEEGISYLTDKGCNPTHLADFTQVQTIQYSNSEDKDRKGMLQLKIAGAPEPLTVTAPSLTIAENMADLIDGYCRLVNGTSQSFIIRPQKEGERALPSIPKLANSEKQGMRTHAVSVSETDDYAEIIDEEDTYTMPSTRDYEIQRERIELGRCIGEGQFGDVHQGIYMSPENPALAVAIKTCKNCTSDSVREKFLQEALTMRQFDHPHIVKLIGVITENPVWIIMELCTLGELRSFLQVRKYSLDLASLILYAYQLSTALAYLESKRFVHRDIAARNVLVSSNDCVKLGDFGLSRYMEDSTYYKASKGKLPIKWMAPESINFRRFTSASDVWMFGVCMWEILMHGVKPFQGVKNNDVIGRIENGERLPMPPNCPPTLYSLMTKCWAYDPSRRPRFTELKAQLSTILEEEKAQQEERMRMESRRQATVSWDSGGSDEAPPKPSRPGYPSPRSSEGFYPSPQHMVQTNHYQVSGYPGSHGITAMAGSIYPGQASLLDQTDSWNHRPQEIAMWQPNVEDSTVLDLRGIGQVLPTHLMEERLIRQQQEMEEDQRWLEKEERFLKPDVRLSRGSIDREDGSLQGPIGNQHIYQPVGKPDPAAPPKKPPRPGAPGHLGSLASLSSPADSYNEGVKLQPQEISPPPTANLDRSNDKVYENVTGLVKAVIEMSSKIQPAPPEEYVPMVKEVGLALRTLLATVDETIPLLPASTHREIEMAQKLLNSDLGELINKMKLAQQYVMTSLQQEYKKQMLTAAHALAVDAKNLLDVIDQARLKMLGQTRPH
Sequence of ERK2 (P28482 whole entry): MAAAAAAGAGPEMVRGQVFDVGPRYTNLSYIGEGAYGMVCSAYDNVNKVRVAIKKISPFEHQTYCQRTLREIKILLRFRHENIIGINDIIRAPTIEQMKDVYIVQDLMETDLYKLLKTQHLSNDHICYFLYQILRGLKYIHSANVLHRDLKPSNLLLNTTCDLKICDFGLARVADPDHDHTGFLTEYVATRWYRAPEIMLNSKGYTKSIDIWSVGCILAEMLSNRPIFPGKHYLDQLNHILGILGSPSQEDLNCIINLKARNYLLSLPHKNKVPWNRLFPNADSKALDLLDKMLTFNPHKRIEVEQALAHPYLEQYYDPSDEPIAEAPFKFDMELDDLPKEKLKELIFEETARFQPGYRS

O=C(Nc1ccc(Cl)c(C(F)(F)F)c1)Nc1ccc2ncnc(Nc3cccc(Br)c3)c2c1 [Compound 7i]
IC50 [1]: 2.25 ± 0.08 µM | IC50 [2]: 1.72 ± 0.49 µM | IC50 [3]: 2.81 ± 0.09 µM | IC50 ([4]; ADP-Glo, mean ± SD of at least two independent experiments, read-out: Enzymatic inhibition IC50 (nM) EGFR): 17.3 ± 0.54 nM | Enzyme activity % EGFR ([4]; remaining enzyme activity at 1 μm compound): 10.52 ± 0.26% | melting point: 268 to 268.9 °C | Enzyme activity % FAK [5]: 81.70 ± 2.75% | Enzyme activity % FGFR2 [6]: 91.07 ± 8.02% | Enzyme activity % HER4 [7]: 76.85 ± 0.33% | Enzyme activity % LCK [8]: 86.84 ± 6.53% | Enzyme activity % SRC [9]: 72.10 ± 1.83% | Enzyme activity % Syk [10]: 101.13 ± 9.99% | Enzyme activity % FLT3 [11]: 92.18 ± 15.36% | Enzyme activity % KDR [12]: 79.66 ± 2.00% | Enzyme activity % NIK [13]: 76.97 ± 5.84% | Enzyme activity % ASK1 [14]: 62.27 ± 3.02% | Enzyme activity % PKCa [15]: 77.27 ± 1.18% | Enzyme activity % ROCK1 [16]: 78.70 ± 4.00% | Enzyme activity % PKACα [17]: 86.02 ± 3.75% | Enzyme activity % CLK3 [18]: 86.80 ± 1.90% | Enzyme activity % JNK1 [19]: 89.43 ± 2.48% | Enzyme activity % ERK2 [20]: 97.31 ± 11.84% | Enzyme activity % GSK3β [21]: 103.71 ± 1.75% | Enzyme activity % IRAK4 [22]: 86.33 ± 0.56% | Enzyme activity % B-raf [23]: 96.68 ± 4.29% | enzyme activity of the other protein kinases [24]: > 50%
